# Results: BindingDB's records for doi:10.7270/Q2CV4GM1 (D3R/Abbott, 2015)
# Values joined by “and” are separate entries in the source; they are usually repeats but may differ in a detail not shown here. Equal values may be shown once.
# Target: T1, Tyrosine-protein kinase SYK [355-635] (Homo sapiens, UniProt P43405)
# T1 construct: 355-635
# Experiment: SYK assay_HTRF
row,Compound,IC50
1,CCN(CC)CCCN(c1ccnc(Nc2ccc3c(c2)C(=O)NS3(=O)=O)n1)c1cccc2[nH]ncc12 [GTC000332A],23.9 nM
2,CN1CCN(C(=O)c2ccc(Nc3nccc(Nc4cccc5[nH]ncc45)n3)cc2)CC1 [GTC000185A],4190 nM
3,FC(F)(F)c1ccc(Nc2nccc(Nc3cccc4[nH]ncc34)n2)cc1 [GTC000136A],206 nM
4,c1cc(Nc2ccnc(Nc3ccc4nn[nH]c4c3)n2)c2cn[nH]c2c1 [GTC000112A],52.8 nM and 79.8 nM
5,CC(C)(C)OC(=O)COc1ccc(Nc2nccc(Nc3cccc4[nH]ncc34)n2)cc1 [GTC000194A],1180 nM and 1960 nM and 1640 nM
6,NS(=O)(=O)c1cccc(Nc2nccc(N(CCCCO)c3cccc4[nH]ncc34)n2)c1 [GTC000356A],59.3 nM
7,O=S1(=O)CCc2ccc(Nc3ncc(F)c(N(CCCCO)c4cccc5[nH]ncc45)n3)cc21 [GTC000235A],9.64 nM and 1.94 nM and 1.64 nM
8,CNC(=O)COc1cccc(Nc2nccc(Nc3cccc4[nH]ncc34)n2)c1 [GTC000140A],36.3 nM and 45.7 nM and 37.4 nM and 80.7 nM
9,c1cc(Nc2nccc(Nc3cccc4[nH]ncc34)n2)cc(-c2nc3ccccc3[nH]2)c1 [GTC000157A],5.4 nM and 15.2 nM
10,CNC(=O)CN(c1nc(Nc2ccc3c(c2)S(=O)(=O)CC3)ncc1F)c1cccc2[nH]ncc12 [GTC000367A],81.5 nM and 174 nM and 157 nM and 171 nM
11,CCN(c1nc(Nc2cccc(S(N)(=O)=O)c2)ncc1F)c1cccc2[nH]ncc12 [GTC000240B],3.21 nM and 19 nM and 19.8 nM and 17.2 nM
12,Cc1nc(NC(=O)Cc2ccc(Nc3nccc(Nc4cccc5[nH]ncc45)n3)cc2)sc1C [GTC000215A],676 nM
13,COCCCN(c1nc(Nc2cccc(-c3ocnc3C)c2)ncc1F)c1cccc2[nH]ncc12 [GTC000315A],16.3 nM
14,c1cc(Nc2nccc(Nc3cccc4[nH]ncc34)n2)cc(-c2ccsc2)c1 [GTC000137A],94.2 nM and 162 nM and 160 nM and 353 nM
15,Cc1cc(=O)[nH]c2c(C)cc(Nc3nccc(Nc4cccc5[nH]ncc45)n3)cc12 [GTC000177A],13.9 nM and 43.1 nM and 35.4 nM and 19.6 nM
16,CCN(c1nc(Nc2cccc(C(N)=O)c2)ncc1F)c1cccc2[nH]ncc12 [GTC000318A],13.4 nM and 35.2 nM
17,O=c1[nH]c2ccc(Nc3nccc(N(CCCO)c4cccc5[nH]ncc45)n3)cc2[nH]1 [GTC000256A],5.01 nM
18,O=C(Nc1ccccc1)c1ccc(Nc2nccc(Nc3cccc4[nH]ncc34)n2)cc1 [GTC000182A],433 nM and 398 nM
19,O=C1CCc2ccc(Nc3nccc(Nc4cccc5[nH]ncc45)n3)cc21 [GTC000116A],195 nM and 146 nM
20,CC(C)(C)c1ccc(Nc2nccc(Nc3cccc4[nH]ncc34)n2)cc1 [GTC000176A],508 nM
21,CCN(c1nc(Nc2ccc3ncsc3c2)ncc1F)c1cccc2[nH]ncc12 [GTC000325A],10.1 nM and 55.7 nM and 29.3 nM

row,Compound,IC50
1,FC(F)(F)c1cccc(Nc2nccc(Nc3cccc4[nH]ncc34)n2)c1 [GTC000132A],154 nM and 127 nM and 151 nM and 440 nM
2,CCN(c1nc(Nc2cc(S(N)(=O)=O)ccc2OC)ncc1F)c1cccc2[nH]ncc12 [GTC000341A],30.5 nM
3,CC(=O)NCCCCCN(c1ccnc(Nc2ccc3[nH]c(=O)[nH]c3c2)n1)c1cccc2[nH]ncc12 [GTC000310A],16.4 nM
4,NC(=O)c1cccc(Nc2nccc(N(CCCO)c3cccc4[nH]ncc34)n2)c1 [GTC000309A],17.7 nM
5,CCN(c1nc(Nc2ccc(S(N)(=O)=O)cc2)ncc1F)c1cccc2[nH]ncc12 [GTC000261A],5.04 nM
6,CCN(c1nc(Nc2ccc3c(c2)S(=O)(=O)NC3)ncc1Br)c1cccc2[nH]ncc12 [GTC000327A],12.1 nM and 21.5 nM and 43.8 nM
7,c1cc(Nc2ccnc(Nc3ccc(-c4cnco4)cc3)n2)c2cn[nH]c2c1 [GTC000165A],119 nM and 180 nM and 340 nM and 202 nM
8,NCCCN(c1ccnc(Nc2ccc3c(c2)S(=O)(=O)NC3)n1)c1cccc2[nH]ncc12 [GTC000227A],0.857 nM and 0.75 nM and 3.63 nM
9,O=C1Cc2cc(Nc3nccc(Nc4cccc5[nH]ncc45)n3)ccc2N1 [GTC000107A],180 nM and 71 nM and 80.7 nM and 115 nM
10,COCCN(c1ccnc(Nc2ccc3c(cnn3C)c2)n1)c1cccc2[nH]ncc12 [GTC000345A],30.8 nM
11,N#Cc1cccc(Nc2nccc(Nc3cccc4[nH]ncc34)n2)c1 [GTC000131A],62.4 nM and 70.5 nM
12,CCN(c1nc(Nc2ccc3c(c2)S(=O)(=O)CC3)ncc1F)c1cccc2[nH]ncc12 [GTC000277A],7.19 nM and 7.62 nM
13,O=S1(=O)Cc2ccc(Nc3nccc(Nc4cccc5[nH]ncc45)n3)cc2C1 [GTC000147A],60.5 nM and 109 nM
14,OCCCCN(c1ccnc(Nc2ccc3nn[nH]c3c2)n1)c1cccc2[nH]ncc12 [GTC000275A],6.08 nM
15,CCN(c1nc(Nc2ccc3[nH]c(=O)oc3c2)ncc1F)c1cccc2[nH]ncc12 [GTC000361A],72.3 nM
16,CCN(c1nc(Nc2ccc3c(c2)[nH]c(=O)n3C)ncc1F)c1cccc2[nH]ncc12 [GTC000283A],8.13 nM
17,CC(=O)NCCCCN(c1ccnc(Nc2ccc3[nH]c(=O)[nH]c3c2)n1)c1cccc2[nH]ncc12 [GTC000231A],1.42 nM
18,O=S1(=O)NCc2ccc(Nc3nccc(N(C[C@@H](O)CO)c4cccc5[nH]ncc45)n3)cc21 [GTC000304A],13.6 nM
19,CCN(c1nc(Nc2ccc3cnn(CCCO)c3c2)ncc1F)c1cccc2[nH]ncc12 [GTC000250A],2.81 nM and 3.59 nM and 14.9 nM and 5.77 nM
20,CC(=O)N(C)c1ccc(Nc2nccc(Nc3cccc4[nH]ncc34)n2)cc1 [GTC000175A],793 nM
21,CS(=O)(=O)NCCCCCN(c1ccnc(Nc2ccc3[nH]c(=O)[nH]c3c2)n1)c1cccc2[nH]ncc12 [GTC000308A],17.7 nM and 15.4 nM

row,Compound,IC50
1,CCN(CC)C(=O)c1ccc(Nc2nccc(Nc3cccc4[nH]ncc34)n2)cc1 [GTC000150A],315 nM
2,NCCCN(c1nc(Nc2ccc3c(c2)S(=O)(=O)CC3)ncc1F)c1cccc2[nH]ncc12 [GTC000252A],4.94 nM
3,CCN(c1nc(Nc2ccc(CCO)cc2)ncc1F)c1cccc2[nH]ncc12 [GTC000333A],27.3 nM
4,COCCCN(c1ccnc(Nc2ccc3nn[nH]c3c2)n1)c1cccc2[nH]ncc12 [GTC000257A],5.04 nM
5,CCN(c1nc(Nc2ccc3c(c2)C(C)(C)C(=O)N3)ncc1F)c1cccc2[nH]ncc12 [GTC000302A],13.2 nM
6,O=S1(=O)NCc2ccc(Nc3nccc(N(CC(F)(F)F)c4cccc5[nH]ncc45)n3)cc21 [GTC000314A],15.7 nM
7,CC(=O)N1CCc2cc(Nc3nccc(Nc4cccc5[nH]ncc45)n3)ccc21 [GTC000114A],206 nM
8,c1cc(Nc2nccc(Nc3cccc4[nH]ncc34)n2)cc(-c2cc[nH]n2)c1 [GTC000126A],22.3 nM and 41.9 nM
9,O=C(O)CCCN(c1ccnc(Nc2ccc3c(c2)S(=O)(=O)NC3)n1)c1cccc2[nH]ncc12 [GTC000245A],3.88 nM
10,CCN(c1nc(Nc2ccc(N3CCN(C)CC3)cc2)ncc1F)c1cccc2[nH]ncc12 [GTC000363A],105 nM
11,O=S1(=O)CCc2ccc(Nc3ncc(F)c(N(CCCO)c4cccc5[nH]ncc45)n3)cc21 [GTC000251A],6.11 nM and 4.06 nM and 3.67 nM
12,Oc1ccc(Nc2nccc(Nc3cccc4[nH]ncc34)n2)cc1 [GTC000138A],195 nM and 50.5 nM
13,c1cc(Nc2nccc(Nc3cccc4[nH]ncc34)n2)cc(-c2cnco2)c1 [GTC000156A],18.7 nM and 33.6 nM
14,O=C1CNC(=O)N1c1ccc(Nc2nccc(Nc3cccc4[nH]ncc34)n2)cc1 [GTC000166A],242 nM
15,CS(=O)(=O)c1cccc(Nc2nccc(N(CCCO)c3cccc4[nH]ncc34)n2)c1 [GTC000338A],11.6 nM and 39.7 nM and 85.1 nM
16,NS(=O)(=O)c1cccc(Nc2nccc(Nc3cccc4[nH]ncc34)n2)c1 [3-{[4-(1H-indazol-4-ylamino)pyrimidin-2-yl]amino}benzene-1-sulfonamide],18 nM and 47.5 nM
17,O=S1(=O)NCc2ccc(Nc3ncc(F)c(N(CC4CCOC4)c4cccc5[nH]ncc45)n3)cc21 (stereo unspecified) [GTC000253A],5.19 nM
18,CN(c1nc(Nc2ccc3c(c2)COC(=O)N3)ncc1F)c1cccc2[nH]ncc12 [GTC000248A],3.9 nM
19,CCN(c1nc(Nc2cccc(-c3cccnc3)c2)ncc1F)c1cccc2[nH]ncc12 [GTC000340A],29.3 nM
20,COCCCN(c1ccnc(Nc2cccc(C(N)=O)c2)n1)c1cccc2[nH]ncc12 [GTC000324A],12.8 nM and 61.9 nM
21,COCCN(c1ccnc(Nc2ccc3c(c2)S(=O)(=O)NC3)n1)c1cccc2[nH]ncc12 [GTC000285A],8.34 nM

row,Compound,IC50
1,O=c1[nH]c2ccc(Nc3ncc(F)c(N(CCCO)c4cccc5[nH]ncc45)n3)cc2[nH]1 [GTC000262A],5.09 nM
2,CN(c1nc(Nc2ccc3c(c2)S(=O)(=O)NC3)ncc1F)c1cccc2[nH]ncc12 [GTC000249A],11.6 nM and 1.99 nM
3,O=C(COc1ccc(Nc2nccc(Nc3cccc4[nH]ncc34)n2)cc1)NCCCN1CCCC1=O [GTC000204A],2070 nM
4,CONS(=O)(=O)c1ccc(Nc2nccc(Nc3cccc4[nH]ncc34)n2)cc1 [GTC000180A],200 nM and 276 nM
5,NCCCN(c1ccnc(Nc2ccc3[nH]c(=O)[nH]c3c2)n1)c1cccc2[nH]ncc12 [GTC000293A],9.29 nM
6,CCN(c1nc(Nc2ccc3c(c2)C(=O)NC3)ncc1F)c1cccc2[nH]ncc12 [GTC000326A],13.5 nM and 17.3 nM and 66.7 nM
7,O=S1(=O)NCc2ccc(Nc3nccc(N(CCCO)c4cccc5[nH]ncc45)n3)cc21 [GTC000226B],0.412 nM and 0.746 nM and 2.23 nM and 3.35 nM and 0.925 nM and 2.21 nM and 3.52 nM and 3.44 nM
8,CCN(c1nc(Nc2ccc3c(c2)C(=O)N(C)C3)ncc1F)c1cccc2[nH]ncc12 [GTC000353A],32.5 nM and 109 nM
9,O=C(Cc1ccc(Nc2nccc(Nc3cccc4[nH]ncc34)n2)cc1)Nc1cccc(Cl)c1 [GTC000213A],1390 nM
10,CCN(CC)CCCN(c1ccnc(Nc2ccc3c(c2)CNS3(=O)=O)n1)c1cccc2[nH]ncc12 [GTC000368A],229 nM and 88.3 nM
11,O=C(Cc1ccc(Nc2nccc(Nc3cccc4[nH]ncc34)n2)cc1)Nc1cccc(C(F)(F)F)c1 [GTC000212A],1040 nM
12,Cc1nn(CCCO)c2cc(Nc3ncc(F)c(N(CCCO)c4cccc5[nH]ncc45)n3)ccc12 [GTC000234A],4.79 nM and 2.46 nM and 1.87 nM
13,CCN(c1nc(Nc2cccc(S(C)(=O)=O)c2)ncc1F)c1cccc2[nH]ncc12 [GTC000300A],11.3 nM
14,Cn1cnc2cc(Nc3nccc(Nc4cccc5[nH]ncc45)n3)ccc21 [GTC000162A],110 nM and 94 nM and 245 nM
15,CCN(c1nc(Nc2ccc3cnn(CCCCO)c3c2)ncc1F)c1cccc2[nH]ncc12 [GTC000299A],13.9 nM
16,CS(=O)(=O)NCCCN(c1ccnc(Nc2ccc3[nH]c(=O)[nH]c3c2)n1)c1cccc2[nH]ncc12 [GTC000239A],3.16 nM
17,CCN(c1nc(Nc2ccc3c(C)n(CCCO)nc3c2)ncc1F)c1cccc2[nH]ncc12 [GTC000370A],188 nM
18,Cc1cc(NS(=O)(=O)c2ccc(Nc3nccc(Nc4cccc5[nH]ncc45)n3)cc2)no1 [GTC000189A],741 nM and 942 nM and 582 nM
